Common to all, as to assay type: cell-based, human
In one assay the test system is EBV-B target cells. Nature of the assay: C35 peptide mediated T cell lysis of peptide pulsed EBV-B cells (Table 10). The conditions noted are these: for % Lysis EBV-B cell Target: target pulsed with peptide.
The subject of the next assay is 21NT.A2. Nature of the assay: 51Cr release, CD8+ cells stimulated with K104-V113 peptides (Example 17). To be noted: target 21NT.A2.
The next assay concerns H16.A2. The description is as above. To be noted: for Raw Chromium Values: target H16.A2.
In a further assay the test system is Mel 1359. Described as above. The conditions noted are these: target Mel 1359, effector to target 30:1, CD8+ cells 12 days in IL-2 after fourth stimulation; for Raw Chromium Values: Table 15 (repeat); for Percentage of Target Cells Lysed: Table 16 (repeat).
A further assay relates to Mel F002. The description is as above. The conditions noted are these: for Raw Chromium Values: Table 15 (repeat), target Mel F002, effector to target 30:1, CD8+ cells 12 days in IL-2 after fourth stimulation; for Percentage of Target Cells Lysed: Table 16 (repeat), effector to target 30:1, CD8+ cells 12 days in IL-2 after fourth stimulation.
Another assay deals with Mel 501. The description is as above. To be noted: target Mel 501, effector to target 30:1, CD8+ cells 12 days in IL-2 after fourth stimulation; for Raw Chromium Values: Table 15 (repeat); for Percentage of Target Cells Lysed: Table 16 (repeat).
The subject of another assay is PCl-13 K104-V113-Ser. Described as above. The conditions noted are these: CD8+ cells of donor stimulated with peptide pulsed DCs; for Raw Chromium Values: Table 13, target PCl-13 K104-V113-Ser; for Percentage of Target Cells Lysed: Table 14, target Pcl-13 K104-V113-Ser.
In a further assay the test system is 21NT. Described as above. To be noted: target 21NT, CD8+ cells of donor stimulated with peptide pulsed DCs; for Raw Chromium Values: Table 13; for Percentage of Target Cells Lysed: Table 14.
The subject of a further assay is K562. The assay is described as above. The conditions noted are these: for Raw Chromium Values: target K562.
The subject of a further assay is Mel 1700. The assay is described as above. To be noted: target Mel 1700, effector to target 30:1, CD8+ cells 12 days in IL-2 after fourth stimulation; for Raw Chromium Values: Table 15 (repeat); for Percentage of Target Cells Lysed: Table 16 (repeat).
The test system of a further assay is PCl-13. The assay is described as above. To be noted: target PCl-13, CD8+ cells of donor stimulated with peptide pulsed DCs; for Raw Chromium Values: Table 13; for Percentage of Target Cells Lysed: Table 14.
In the next assay the test system is 21NT.A2-Ser. The description is as above. The conditions noted are these: target 21NT.A2-Ser, effector to target 30:1, CD8+ cells 12 days in IL-2 after fourth stimulation; for Raw Chromium Values: Table 15 (repeat); for Percentage of Target Cells Lysed: Table 16 (repeat).
The mark [1] stands for this setting: T cell clones from donor with A3, A66, B8 and B41 HLA haplotypes.
The mark [2] stands for this setting: T cell clone #72, donor (A2, A3; B18, B44).
The mark [3] stands for this setting: T cell clone #75, donor (A2, A3; B18, B44).
Setting [4] is: T cell clone #104, donor (A2, A3; B18, B44).
Where [5] appears, read: T cells from donor with A2, A3, B18, B44 HLA haplotypes raised against 9mer 22-30.
Setting [6] is: Table 13, CD8+ cells of donor stimulated with peptide pulsed DCs.
[7] abbreviates: Table 14, CD8+ cells of donor stimulated with peptide pulsed DCs.
The mark [8] stands for this setting: Table 15 (repeat), effector to target 30:1, CD8+ cells 12 days in IL-2 after fourth stimulation.
The mark [9] stands for this setting: Table 16 (repeat), effector to target 30:1, CD8+ cells 12 days in IL-2 after fourth stimulation.

Regarding GGFPYEKDL [peptide 81-89], in the assay with EBV-B target cells (setting [1]), the “lytic activity on EBV-B target cells pulsed with peptide” value amounted to 40.3%.
In the case of GVRIVVEYC [peptide 22-30], the “% Lysis EBV-B cell Target” value was determined as 72.8% in the assay on EBV-B target cells (setting [2]), 56.8% in the assay with EBV-B target cells (setting [3]) and 100.3% in the assay with EBV-B target cells (setting [4]). Besides, the “lytic activity on EBV-B target cells pulsed with peptide” value with EBV-B target cells (setting [5]) is recorded as “very active”.
For KITNSRPPCV [K104-V113], the “Raw Chromium Values” with 21NT.A2 (setting [6]) is reported as 1429; in the assay on 21NT.A2 (setting [8]) it was 2753; with H16.A2 (setting [6]), 483; in the assay on H16.A2 (setting [8]), 948; with Mel 1359, 2758; in the assay with Mel F002, 1156. Also, the “Raw Chromium Values” in the assay with Mel 501 is reported as 3729; in the assay with PCl-13 K104-V113-Ser, 1403; with 21NT, 137; in the assay with K562 (setting [6]), 311; in the assay with K562 (setting [8]), 1156; in the assay on Mel 1700 it was 1964. The results for the “Raw Chromium Values” with PCl-13 and in the assay on 21NT.A2-Ser were 804 and 3729, respectively. For the same substance, the “Percentage of Target Cells Lysed” value was found to be 22.4% in the assay with 21NT.A2 (setting [7]); 24.6% in the assay with 21NT.A2 (setting [9]); 0.9% in the assay on H16.A2 (setting [7]); 4.3% in the assay with H16.A2 (setting [9]); 7.0% in the assay on Mel 1359; 15.7% in the assay with Mel F002. Besides, the “Percentage of Target Cells Lysed” value with Mel 501 is 36.0%; in the assay with PCl-13 K104-V113-Ser it was 24.8%; in the assay on 21NT, −1.5%; in the assay on K562 (setting [7]), 2.0%; with K562 (setting [9]), 8.0%; in the assay with Mel 1700 it was 8.9%. The “Percentage of Target Cells Lysed” value in the assay with PCl-13 is 7.6%; with 21NT.A2-Ser, 41.5%.
In the case of “K104-V113-cys-cys: K104-V113 peptide fragment of C35 containing a cysteinylated cysteine at amino acid position 112”, the “Raw Chromium Values” with 21NT.A2 (setting [6]) is reported as 1329; with 21NT.A2 (setting [8]), 2337; with H16.A2 (setting [6]), 440; in the assay with H16.A2 (setting [8]), 1024; in the assay on Mel 1359, 2299; with Mel F002, 1713. Moreover, the “Raw Chromium Values” with Mel 501 is given as 4474; with PCl-13 K104-V113-Ser, 1772; with 21NT, 171; in the assay with K562 (setting [6]), 287; in the assay on K562 (setting [8]), 1713; in the assay with Mel 1700, 1857. For the same substance, the “Raw Chromium Values” in the assay on PCl-13 is reported as 486; in the assay on 21NT.A2-Ser, 4474. Further, the “Percentage of Target Cells Lysed” value with 21NT.A2 (setting [7]) came to 20.1%; with 21NT.A2 (setting [9]) it was 19.1%; with H16.A2 (setting [7]), 0.2%; in the assay with H16.A2 (setting [9]) it was 5.8%; in the assay on Mel 1359, 2.5%; with Mel F002 it was 11.2%. Also, the “Percentage of Target Cells Lysed” value in the assay with Mel 501 is listed as 21.2%; with PCl-13 K104-V113-Ser, 35.3%; in the assay on 21NT, −0.1%; in the assay on K562 (setting [7]), 0.9%; with K562 (setting [9]), 16.2%; in the assay with Mel 1700, 7.2%. Besides, the results for the “Percentage of Target Cells Lysed” value in the assay on PCl-13 and with 21NT.A2-Ser were −1.7% and 51.9%, respectively.
Turning to “KITNSRPPAV (synthetic analog of human C35 epitope) [K104-V113-Ala]”, the “Raw Chromium Values” in the assay with 21NT.A2 (setting [6]) is 763; in the assay on 21NT.A2 (setting [8]), 1365; in the assay on H16.A2 (setting [6]), 479; in the assay on H16.A2 (setting [8]) it was 829; in the assay with Mel 1359, 3050; in the assay with Mel F002, 815. Further, the “Raw Chromium Values” with Mel 501 is given as 2423; with PCl-13 K104-V113-Ser it was 746; in the assay on 21NT, 155; in the assay with K562 (setting [6]) it was 246; in the assay with K562 (setting [8]), 815; in the assay with Mel 1700, 1543. Besides, the “Raw Chromium Values” in the assay with PCl-13 was found to be 468; in the assay on 21NT.A2-Ser, 2423. Besides, the “Percentage of Target Cells Lysed” value in the assay on 21NT.A2 (setting [7]) worked out at 7.3%; with 21NT.A2 (setting [9]), 6.4%; in the assay with H16.A2 (setting [7]) it was 0.9%; in the assay with H16.A2 (setting [9]), 2.0%; with Mel 1359, 9.9%; with Mel F002, 7.6%. Also, the “Percentage of Target Cells Lysed” value is 11.1% with Mel 501; 6.0% with PCl-13 K104-V113-Ser; −0.7% with 21NT; −0.9% in the assay on K562 (setting [7]); 2.9% with K562 (setting [9]); 2.4% with Mel 1700. The figures for the “Percentage of Target Cells Lysed” value in the assay on PCl-13 and with 21NT.A2-Ser were −2.2% and 22.5%, respectively.
Turning to QLVFSKLENGGFPYE [peptide 72-86], the “% Lysis EBV-B cell Target” value in the assay on EBV-B target cells (T cell clone #46, donor (A2, A3; B18, B44)) is 78.5%. Also, the “lytic activity on EBV-B cells pulsed with peptide” value in the assay on EBV-B target cells (T cell clones from donor with A2, A3, B18, B44 HLA haplotypes) worked out at 78.5%.
In the case of “KITNSRPPSV (synthetic analog of human C35 epitope) [K104-V113-Ser]”, the “Raw Chromium Values” in the assay with 21NT.A2 (setting [6]) turned out to be 3228; in the assay on 21NT.A2 (setting [8]) it was 4957; in the assay with H16.A2 (setting [6]), 584; with H16.A2 (setting [8]), 1018; with Mel 1359, 2357; with Mel F002 it was 974. For the same substance, the “Raw Chromium Values” in the assay on Mel 501 amounted to 4762; with PCl-13 K104-V113-Ser, 2588; in the assay on 21NT, 185; with K562 (setting [6]), 323; in the assay on K562 (setting [8]) it was 974; in the assay with Mel 1700 it was 2951. Also, the “Raw Chromium Values” in the assay on PCl-13 was 581; in the assay on 21NT.A2-Ser, 4762. Moreover, the “Percentage of Target Cells Lysed” value with 21NT.A2 (setting [7]) is 63.2%; with 21NT.A2 (setting [9]), 53.4%; in the assay on H16.A2 (setting [7]), 2.6%; in the assay with H16.A2 (setting [9]) it was 5.6%; in the assay with Mel 1359 it was 3.0%; with Mel F002 it was 15.1%. Also, the “Percentage of Target Cells Lysed” value in the assay with Mel 501 is given as 45.3%; with PCl-13 K104-V113-Ser it was 58.7%; in the assay on 21NT, 0.5%; with K562 (setting [7]), 2.5%; in the assay with K562 (setting [9]), 5.3%; in the assay with Mel 1700 it was 24.1%. Besides, the “Percentage of Target Cells Lysed” value with PCl-13 is 1.1%; with 21NT.A2-Ser, 56.0%.
Consider “peptide 17-31: 15mer corresponding to amino acids 17-31 of C35 (SEQ ID NO:2) (VEPGSGVRIVVEYCE; listed as Homo sapiens)”, for which the “% Lysis EBV-B cell Target” value in the assay on EBV-B target cells (setting [2]) was determined as 0.5%; in the assay with EBV-B target cells (setting [3]), 1.2%; with EBV-B target cells (setting [4]), 6.4%. For the same substance, the “lytic activity on EBV-B target cells pulsed with peptide” value in the assay on EBV-B target cells (setting [5]) was “minimal lysis”.
As for IEINGQLVF [peptide 67-75], the “lytic activity on EBV-B target cells pulsed with peptide” value in the assay on EBV-B target cells (setting [1]) came to 54.9%.
